# Results as given in article PMC3055678 (ACS Medicinal Chemistry Letters, 2011).
# Legend:
# BMK1 [1] = target: T1, BMK1 (Homo sapiens, UniProt Q13164); experiment: Ambit KINOMEscan single-point score; type: binding; details: concentration of 10 μM
# panel of 402 kinases = experiment: Ambit KINOMEscan ATP-site competition binding, panel of 402 kinases; details: concentration of 10 μM, Erk5 = BMK1
# BMK1 [2] = target: T1, BMK1; experiment: EGF-stimulated BMK1 autophosphorylation in HeLa cells; details: concentration of 1 μM
# T1 sequence (Q13164 whole entry): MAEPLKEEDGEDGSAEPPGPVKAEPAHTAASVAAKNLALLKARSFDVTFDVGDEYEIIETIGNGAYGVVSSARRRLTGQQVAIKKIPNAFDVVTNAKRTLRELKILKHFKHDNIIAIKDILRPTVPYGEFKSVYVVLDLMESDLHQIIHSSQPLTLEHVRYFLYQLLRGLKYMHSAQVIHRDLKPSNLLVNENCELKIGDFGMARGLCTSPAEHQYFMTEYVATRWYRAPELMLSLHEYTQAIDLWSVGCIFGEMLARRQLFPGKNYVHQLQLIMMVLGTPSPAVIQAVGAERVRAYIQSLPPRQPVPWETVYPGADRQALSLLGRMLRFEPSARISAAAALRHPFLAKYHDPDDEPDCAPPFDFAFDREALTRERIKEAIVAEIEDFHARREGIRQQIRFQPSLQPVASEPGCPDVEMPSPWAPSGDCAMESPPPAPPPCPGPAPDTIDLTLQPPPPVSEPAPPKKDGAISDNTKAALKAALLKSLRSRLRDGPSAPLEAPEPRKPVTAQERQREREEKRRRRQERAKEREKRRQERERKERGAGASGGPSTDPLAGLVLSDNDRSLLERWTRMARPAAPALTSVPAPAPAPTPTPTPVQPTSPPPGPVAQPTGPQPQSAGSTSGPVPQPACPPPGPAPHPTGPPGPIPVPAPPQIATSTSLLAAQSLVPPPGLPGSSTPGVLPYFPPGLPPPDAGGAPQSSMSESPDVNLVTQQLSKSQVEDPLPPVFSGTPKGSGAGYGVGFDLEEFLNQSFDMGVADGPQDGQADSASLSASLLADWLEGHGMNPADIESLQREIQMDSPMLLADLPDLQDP
SMILES,ambit score against BMK1 (BMK1 [1]),kinase hits (kinases that exhibited greater than 95% displacement from an immobilized ligand) (panel of 402 kinases),inhibition of BMK1 autophosphorylation (BMK1 [2])
COc1cc(N2CCN(C)CC2)ccc1Nc1ncc2c(n1)N(C)c1ccccc1C(=O)N2 [compound 10],0.5,"ABL1(F317I), BRK, C-FMS, DCAMKL1, DCAMKL2, ERK5, FRK, GAK, KIT(L576P), MYLK4, TNK1, TNK2",
COc1cc(N2CCN(C)CC2)ccc1Nc1ncc2c(n1)N(C)c1ccccc1C(=O)N2C [compound 11],0,"DCAMKL1, DCAMKL2, ERK5, FRK, MNK2, PKD1, PKD2, RSK4∼b, TAO1, TAO3, TNK1, TNK2, ULK1, ULK2",significantly inhibited
